Measured values reported in article PMC7093416, “Selective USP7 inhibition elicits cancer cell killing through a p53-dependent mechanism” (Scientific Reports, 2020).
Where “and” joins values, the source holds several entries; their conditions need not be identical. Identical values can stand only once.

System: panel of 484 cancer cell lines
Assay: PRISM cancer cell line profiling, 5 days
Type: cell-based
Parameters: Viability: scale not given here; AUC: unit not given beside the values
Protocol: Cancer cell line profiling was performed using the Broad’s PRISM platform. Cell treatment and data analysis were performed as described in Yu et al[42]. Raw Luminex signal was converted to AUC values for each cell line as described. The resulting AUC profile for each compound was modeled against DepMap using the limma package in R[71]. Because hotspot mutation analysis was performed against DepMap, TP53 annotations in Fig. 6c,d are directly from DepMap.

[1] = HEC59_ENDOMETRIUM, pert_dose 6.10E-04
[2] = HEC108_ENDOMETRIUM, pert_dose 6.10E-04
[3] = HEC151_ENDOMETRIUM, pert_dose 6.10E-04
[4] = HEP3B217_LIVER, pert_dose 6.10E-04
[5] = HEYA8_OVARY, pert_dose 6.10E-04
[6] = HPAC_PANCREAS, pert_dose 6.10E-04
[7] = HS294T_SKIN, pert_dose 6.10E-04
[8] = HS618T_LUNG, pert_dose 6.10E-04
[9] = HS729_SOFT_TISSUE, pert_dose 6.10E-04
[10] = HS766T_PANCREAS, pert_dose 6.10E-04
[11] = HS852T_SKIN, pert_dose 6.10E-04
[12] = HS939T_SKIN, pert_dose 6.10E-04
[13] = HSC2_UPPER_AERODIGESTIVE_TRACT, pert_dose 6.10E-04
[14] = HSC3_UPPER_AERODIGESTIVE_TRACT, pert_dose 6.10E-04
[15] = HT29_LARGE_INTESTINE, pert_dose 6.10E-04
[16] = HT55_LARGE_INTESTINE, pert_dose 6.10E-04
[17] = HUCCT1_BILIARY_TRACT, pert_dose 6.10E-04
[18] = HUH28_BILIARY_TRACT, pert_dose 6.10E-04
[19] = IGROV1_OVARY, pert_dose 6.10E-04
[20] = IPC298_SKIN, pert_dose 6.10E-04

`COc1ccc(C2=N[C@@H](c3ccc(Cl)cc3)[C@@H](c3ccc(Cl)cc3)N2C(=O)N2CCNC(=O)C2)c(OC(C)C)c1` [Nutlin-3A] was tested, and the AUC (HEC59_ENDOMETRIUM) was 1.062, the “MFI HEC59_ENDOMETRIUM” value [1] was 10418.5 and 8852 and 7376 and 10636 and 7469 and the Viability [1] was 1.236. For the same compound, the AUC (HEC108_ENDOMETRIUM) was 0.9813, the “MFI HEC108_ENDOMETRIUM” value [2] was 22169.5 and 21680 and 21571 and 20999 and 14974 and the Viability [2] was 1.448. The AUC (HEC151_ENDOMETRIUM) was 0.8923, the “MFI HEC151_ENDOMETRIUM” value [3] was 15512 and 13471 and 16551 and 13036 and 13374 and the Viability [3] was 1.158. It also gave an AUC (HEC251_ENDOMETRIUM) of 1.051, an AUC (HEC265_ENDOMETRIUM) of 0.862 and a Viability (HEC265_ENDOMETRIUM, pert_dose 6.10E-04) of 1.3422. The AUC (HEP3B217_LIVER) was 1.168, the “MFI HEP3B217_LIVER” value [4] was 4895 and 4355 and 5398 and 5541 and 7085.5 and the Viability [4] was 1.05. For the same compound, the AUC (HEYA8_OVARY) was 0.8732, the “MFI HEYA8_OVARY” value [5] was 14485.5 and 11701.5 and 12129 and 10947 and 12823 and the Viability [5] was 1.321. It also gave an AUC (HGC27_STOMACH) of 1.116, an AUC (HLF_LIVER) of 1.153 and an AUC (HMC18_BREAST) of 1.214. For the same compound, the “MFI HMC18_BREAST” value (HMC18_BREAST, pert_dose 6.10E-04) was 29555.5 and 31726 and 28535 and 27291 and 25031.5, the AUC (HOS_BONE) was 1.0473 and the “MFI HOS_BONE” value (HOS_BONE, pert_dose 6.10E-04) was 25115 and 17203.5 and 23311.5 and 23304 and 24478. For the same compound, the Viability (HOS_BONE, pert_dose 6.10E-04) was 1.257, the AUC (HPAC_PANCREAS) was 1.491 and the “MFI HPAC_PANCREAS” value [6] was 14040 and 13836.5 and 12138 and 14386 and 13656. For the same compound, the Viability [6] was 1.593, the AUC (HS294T_SKIN) was 0.8649 and the “MFI HS294T_SKIN” value [7] was 15509 and 11081.5 and 12624.5 and 16477 and 13812.5. For the same compound, the Viability [7] was 1.3841, the AUC (HS618T_LUNG) was 1.119 and the “MFI HS618T_LUNG” value [8] was 423.5 and 422.5 and 583 and 491 and 486.5. For the same compound, the Viability [8] was 1.131, the AUC (HS729_SOFT_TISSUE) was 1.053 and the “MFI HS729_SOFT_TISSUE” value [9] was 5267.5 and 3467.5 and 6111 and 4197 and 4598. For the same compound, the Viability [9] was 1.333, the AUC (HS766T_PANCREAS) was 1.165 and the “MFI HS766T_PANCREAS” value [10] was 2873 and 4107.5 and 4713 and 3779 and 3684. For the same compound, the Viability [10] was 0.8691, the AUC (HS852T_SKIN) was 0.95 and the “MFI HS852T_SKIN” value [11] was 952 and 665.5 and 666.5 and 706 and 781.5. For the same compound, the Viability [11] was 1.404, the AUC (HS939T_SKIN) was 0.8847 and the “MFI HS939T_SKIN” value [12] was 1676 and 1756.5 and 2260 and 2253 and 2240. The Viability [12] was 0.6815, the AUC (HS944T_SKIN) was 1.082 and the AUC (HSC2_UPPER_AERODIGESTIVE_TRACT) was 0.986. The “MFI HSC2_UPPER_AERODIGESTIVE_TRACT” value [13] was 16228 and 12093.5 and 8568 and 11207.5 and 10414, the Viability [13] was 1.409 and the AUC (HSC3_UPPER_AERODIGESTIVE_TRACT) was 1.141. The “MFI HSC3_UPPER_AERODIGESTIVE_TRACT” value [14] was 19468 and 21785 and 24258 and 21275 and 18776, the Viability [14] was 1.0036 and the AUC (HT29_LARGE_INTESTINE) was 1.34. The “MFI HT29_LARGE_INTESTINE” value [15] was 15605 and 16428.5 and 18104 and 14824 and 17298, the Viability [15] was 1.215 and the AUC (HT55_LARGE_INTESTINE) was 1.149. For the same compound, the “MFI HT55_LARGE_INTESTINE” value [16] was 18343 and 20659.5 and 20881.5 and 14879 and 18638, the Viability [16] was 1.081 and the AUC (HT144_SKIN) was 0.8778. It also gave an AUC (HT1080_SOFT_TISSUE) of 0.7842, an AUC (HT1376_URINARY_TRACT) of 1.193 and an AUC (HUCCT1_BILIARY_TRACT) of 1.095. For the same compound, the “MFI HUCCT1_BILIARY_TRACT” value [17] was 24976 and 22701 and 21301.5 and 24041 and 22645, the Viability [17] was 1.1214 and the AUC (HUH6_LIVER) was 1.038. The “MFI HUH6_LIVER” value (HUH6_LIVER, pert_dose 6.10E-04) was 2954 and 3148.5 and 3422 and 2906 and 2817, the Viability (HUH6_LIVER, pert_dose 6.10E-04) was 1.443 and the AUC (HUH7_LIVER) was 1.414. The “MFI HUH7_LIVER” value (HUH7_LIVER, pert_dose 6.10E-04) was 2519 and 3872.5 and 2817 and 4186 and 2978, the Viability (HUH7_LIVER, pert_dose 6.10E-04) was 1.154 and the AUC (HUH28_BILIARY_TRACT) was 1.075. The “MFI HUH28_BILIARY_TRACT” value [18] was 10419.5 and 14552 and 18877 and 11771 and 16814, the Viability [18] was 1.064 and the AUC (HUPT3_PANCREAS) was 1.108. For the same compound, the “MFI HUPT3_PANCREAS” value (HUPT3_PANCREAS, pert_dose 6.10E-04) was 6399 and 3235.5 and 3378 and 3719 and 5662, the AUC (IALM_LUNG) was 1.093 and the “MFI IALM_LUNG” value (IALM_LUNG, pert_dose 6.10E-04) was 15214 and 17539 and 16640 and 15373 and 14718. For the same compound, the Viability (IALM_LUNG, pert_dose 6.10E-04) was 0.9343, the AUC (IGR1_SKIN) was 0.9397 and the “MFI IGR1_SKIN” value (IGR1_SKIN, pert_dose 6.10E-04) was 9685 and 12749 and 10992 and 10674 and 10187.5. It also gave a Viability (IGR1_SKIN, pert_dose 6.10E-04) of 1.096, an AUC (IGR37_SKIN) of 1.088 and a Viability (IGR37_SKIN, pert_dose 6.10E-04) of 0.7539. The AUC (IGROV1_OVARY) was 0.9652, the “MFI IGROV1_OVARY” value [19] was 16733 and 14037 and 9860 and 14121 and 11292 and the Viability [19] was 1.232. The AUC (IM95_STOMACH) was 0.8918, the AUC (IPC298_SKIN) was 1.102 and the “MFI IPC298_SKIN” value [20] was 24999 and 31830 and 20542 and 28455.5 and 32422. The Viability [20] was 1.1324 and the AUC (ISHIKAWAHERAKLIO02ER_ENDOMETRIUM) was 1.148.
